Data as given in the NIST ThermoML archive (doi:10.1021/acs.jced.6b00350).
± gives the expanded uncertainty stated by the source.

Settings: Liquid, Hot wire method

FC(F)CC(F)(F)F [1,1,1,3,3-pentafluoropropane]
Settings	thermal conductivity [W/m/K]
323.16 K, 330 kPa	0.08023 ± 0.001
323.16 K, 19684 kPa	0.09037 ± 0.0012
323.16 K, 19687 kPa	0.09046 ± 0.0012
323.23 K, 13828 kPa	0.0878 ± 0.0011
323.23 K, 13836 kPa	0.08777 ± 0.0011
323.31 K, 8785 kPa	0.08509 ± 0.0011
323.31 K, 8786 kPa	0.08508 ± 0.0011
323.33 K, 69855 kPa	0.1079 ± 0.0014
323.33 K, 69859 kPa	0.1079 ± 0.0014
323.4 K, 58551 kPa	0.1046 ± 0.0013
323.41 K, 58550 kPa	0.1047 ± 0.0013
323.46 K, 49806 kPa	0.1018 ± 0.0013
323.46 K, 49813 kPa	0.1019 ± 0.0013
323.52 K, 40518 kPa	0.09873 ± 0.0013
323.52 K, 40523 kPa	0.09883 ± 0.0013
323.56 K, 33191 kPa	0.09593 ± 0.0012
323.57 K, 33190 kPa	0.0959 ± 0.0012
323.65 K, 26145 kPa	0.09305 ± 0.0012
323.65 K, 26148 kPa	0.09303 ± 0.0012
323.66 K, 4345 kPa	0.08263 ± 0.0011
323.67 K, 4353 kPa	0.08281 ± 0.0011
323.71 K, 19685 kPa	0.09038 ± 0.0012
323.72 K, 19683 kPa	0.09025 ± 0.0012
323.74 K, 330 kPa	0.08004 ± 0.001
323.74 K, 331 kPa	0.08014 ± 0.001
323.8 K, 13825 kPa	0.08771 ± 0.0011
323.8 K, 13826 kPa	0.08762 ± 0.0011
323.88 K, 8784 kPa	0.08522 ± 0.0011
323.89 K, 8785 kPa	0.08516 ± 0.0011
341.35 K, 31717 kPa	0.09048 ± 0.0012
341.36 K, 791 kPa	0.07387 ± 0.00096
341.36 K, 807 kPa	0.07373 ± 0.00095
341.36 K, 31723 kPa	0.09099 ± 0.0012
341.37 K, 4061 kPa	0.07637 ± 0.00099
341.37 K, 4066 kPa	0.07637 ± 0.00099
341.37 K, 8227 kPa	0.07909 ± 0.001
341.38 K, 8222 kPa	0.07861 ± 0.001
341.39 K, 12846 kPa	0.08132 ± 0.001
341.4 K, 12858 kPa	0.08189 ± 0.001
341.41 K, 18251 kPa	0.08455 ± 0.0011
341.42 K, 18258 kPa	0.08459 ± 0.0011
341.43 K, 24450 kPa	0.08726 ± 0.0011
341.44 K, 24457 kPa	0.08772 ± 0.0011
341.44 K, 39673 kPa	0.09407 ± 0.0012
341.44 K, 39675 kPa	0.0951 ± 0.0012
341.65 K, 48504 kPa	0.09719 ± 0.0012
341.66 K, 48505 kPa	0.09738 ± 0.0012
341.69 K, 58414 kPa	0.1006 ± 0.0013
341.71 K, 58417 kPa	0.101 ± 0.0013
341.73 K, 69248 kPa	0.1039 ± 0.0013
341.75 K, 69269 kPa	0.1038 ± 0.0013
341.77 K, 31709 kPa	0.09087 ± 0.0012
341.77 K, 31711 kPa	0.09067 ± 0.0012
341.79 K, 800 kPa	0.07352 ± 0.00095
341.79 K, 8213 kPa	0.07901 ± 0.001
341.79 K, 8220 kPa	0.07915 ± 0.001
341.8 K, 798 kPa	0.074 ± 0.00096
341.8 K, 4049 kPa	0.07607 ± 0.00098
341.8 K, 4060 kPa	0.07627 ± 0.00099
341.8 K, 12862 kPa	0.08133 ± 0.001
341.8 K, 18252 kPa	0.08459 ± 0.0011
341.8 K, 18254 kPa	0.0841 ± 0.0011
341.81 K, 12851 kPa	0.08125 ± 0.001
341.81 K, 24448 kPa	0.08731 ± 0.0011
341.81 K, 24452 kPa	0.08759 ± 0.0011
341.83 K, 39657 kPa	0.09382 ± 0.0012
341.83 K, 39667 kPa	0.09362 ± 0.0012
342.05 K, 48492 kPa	0.09719 ± 0.0012
342.06 K, 48492 kPa	0.09719 ± 0.0012
342.09 K, 58399 kPa	0.1006 ± 0.0013
342.1 K, 58406 kPa	0.1005 ± 0.0013
342.12 K, 69235 kPa	0.1042 ± 0.0013
342.12 K, 69238 kPa	0.104 ± 0.0013
342.21 K, 31695 kPa	0.09091 ± 0.0012
342.23 K, 24443 kPa	0.08756 ± 0.0011
342.23 K, 31701 kPa	0.09082 ± 0.0012
342.24 K, 18254 kPa	0.08456 ± 0.0011
342.24 K, 18263 kPa	0.08459 ± 0.0011
342.24 K, 24457 kPa	0.08773 ± 0.0011
342.25 K, 8211 kPa	0.079 ± 0.001
342.25 K, 8213 kPa	0.0788 ± 0.001
342.25 K, 12847 kPa	0.08139 ± 0.001
342.26 K, 12846 kPa	0.08139 ± 0.001
342.27 K, 4048 kPa	0.07633 ± 0.00099
342.27 K, 39655 kPa	0.09411 ± 0.0012
342.28 K, 795 kPa	0.07417 ± 0.00096
342.28 K, 4064 kPa	0.07591 ± 0.00098
342.28 K, 39659 kPa	0.09393 ± 0.0012
342.29 K, 784 kPa	0.07414 ± 0.00096
342.49 K, 48484 kPa	0.09716 ± 0.0012
342.51 K, 48493 kPa	0.09719 ± 0.0012
342.51 K, 58384 kPa	0.1004 ± 0.0013
342.53 K, 58390 kPa	0.1005 ± 0.0013
342.53 K, 69205 kPa	0.104 ± 0.0013
342.54 K, 69218 kPa	0.1038 ± 0.0013
342.7 K, 24435 kPa	0.08753 ± 0.0011
342.71 K, 18288 kPa	0.08467 ± 0.0011
342.71 K, 24437 kPa	0.08761 ± 0.0011
342.72 K, 31697 kPa	0.09082 ± 0.0012
342.72 K, 31698 kPa	0.09091 ± 0.0012
342.73 K, 18277 kPa	0.08453 ± 0.0011
342.74 K, 12836 kPa	0.08165 ± 0.001
342.75 K, 12854 kPa	0.08161 ± 0.001
342.75 K, 39640 kPa	0.09416 ± 0.0012
342.75 K, 39649 kPa	0.09419 ± 0.0012
342.77 K, 8198 kPa	0.07878 ± 0.001
342.77 K, 8214 kPa	0.07886 ± 0.001
342.8 K, 4060 kPa	0.07628 ± 0.00099
342.81 K, 4048 kPa	0.07623 ± 0.00099
342.82 K, 778 kPa	0.074 ± 0.00096
342.83 K, 779 kPa	0.07358 ± 0.00095
342.98 K, 48479 kPa	0.09746 ± 0.0013
342.99 K, 48476 kPa	0.09717 ± 0.0012
342.99 K, 58371 kPa	0.1007 ± 0.0013
342.99 K, 69188 kPa	0.1043 ± 0.0013
342.99 K, 69203 kPa	0.1043 ± 0.0013
343 K, 58374 kPa	0.1007 ± 0.0013
343.21 K, 24431 kPa	0.0874 ± 0.0011
343.22 K, 24434 kPa	0.0876 ± 0.0011
343.25 K, 18297 kPa	0.0846 ± 0.0011
343.25 K, 18305 kPa	0.08481 ± 0.0011
343.25 K, 31683 kPa	0.09097 ± 0.0012
343.25 K, 31692 kPa	0.09092 ± 0.0012
343.27 K, 39640 kPa	0.09411 ± 0.0012
343.28 K, 39648 kPa	0.09409 ± 0.0012
343.29 K, 12856 kPa	0.08212 ± 0.0011
343.3 K, 12844 kPa	0.08186 ± 0.001
343.33 K, 8193 kPa	0.07913 ± 0.001
343.33 K, 8208 kPa	0.07905 ± 0.001
343.38 K, 4043 kPa	0.07572 ± 0.00098
343.39 K, 4045 kPa	0.07592 ± 0.00098
343.42 K, 777 kPa	0.07373 ± 0.00095
343.43 K, 791 kPa	0.07347 ± 0.00095
343.48 K, 69162 kPa	0.1043 ± 0.0013
343.49 K, 69172 kPa	0.1045 ± 0.0013
343.5 K, 48465 kPa	0.09758 ± 0.0013
343.5 K, 58358 kPa	0.1009 ± 0.0013
343.5 K, 58363 kPa	0.1009 ± 0.0013
343.51 K, 48479 kPa	0.0974 ± 0.0012
